This is an account of results in BindingDB's records for doi:10.1016/s0960-894x(01)00631-x (Novartis Pharma, 2001).

The structures appear in SMILES notation.

The test deals with Substance-P receptor (Bos taurus). In words: In vitro binding affinity for Tachykinin receptor 1 of bovine retinal membranes using [3H]Sar9-substance P as radioligand.
The term IC50 denotes the concentration that gives 50% inhibition. Read a high IC50 as weaker potency. Compound `CN(C(=O)c1cc(C(F)(F)F)cc(C(F)(F)F)c1)N(CCC(=O)N[C@@H]1CCCCNC1=O)Cc1ccc2ccccc2c1` [3-[N'-(3,5-Bis-trifluoromethyl-benzoyl)-N'-methyl-N-naphthalen-2-ylmethyl-hydrazino]-N-((R)-2-oxo-azepan-3-yl)-propionamide] had an IC50 of 6.4 nM.
Compound `CN(C(=O)c1cc(C(F)(F)F)cc(C(F)(F)F)c1)N(CCC(=O)N[C@@H]1CCCCNC1=O)Cc1ccc(Cl)c(Cl)c1` [3-[N'-(3,5-Bis-trifluoromethyl-benzoyl)-N-(3,4-dichloro-benzyl)-N'-methyl-hydrazino]-N-((R)-2-oxo-azepan-3-yl)-propionamide] showed an IC50 of 1.4 nM.
Take `CN(C(=O)c1cc(C(F)(F)F)cc(C(F)(F)F)c1)N(CCC(=O)N[C@@H]1CCCCNC1=O)Cc1cc(Br)c(Br)s1` [3-[N'-(3,5-Bis-trifluoromethyl-benzoyl)-N-(4,5-dibromo-thiophen-2-ylmethyl)-N'-methyl-hydrazino]-N-((R)-2-oxo-azepan-3-yl)-propionamide]: the IC50 worked out at 18 nM.
Compound `CN(C(=O)c1cc(C(F)(F)F)cc(C(F)(F)F)c1)[C@@H](/C=C/C(=O)N[C@@H]1CCCCNC1=O)Cc1cn(C)c2ccccc12` [N-Methyl-N-[(E)-(R)-1-(1-methyl-1H-indol-3-ylmethyl)-3-((R)-2-oxo-azepan-3-ylcarbamoyl)-allyl]-3,5-bis-trifluoromethyl-benzamide] returned an IC50 of 0.5 nM.
For the compound `CN(C(=O)c1cc(C(F)(F)F)cc(C(F)(F)F)c1)[C@@H](/C=C/C(=O)N[C@@H]1CCCCNC1=O)Cc1ccc2ccccc2c1` [N-Methyl-N-[(E)-(R)-1-naphthalen-2-ylmethyl-3-((R)-2-oxo-azepan-3-ylcarbamoyl)-allyl]-3,5-bis-trifluoromethyl-benzamide], the IC50 amounted to 1.1 nM.
In turn, `CN(C(=O)c1cc(C(F)(F)F)cc(C(F)(F)F)c1)[C@@H](/C=C/C(=O)N[C@@H]1CCCCNC1=O)Cc1cc(Br)c(Br)s1` [N-[(E)-(R)-1-(4,5-Dibromo-thiophen-2-ylmethyl)-3-((R)-2-oxo-azepan-3-ylcarbamoyl)-allyl]-N-methyl-3,5-bis-trifluoromethyl-benzamide] gave an IC50 of 20 nM. This IC50 is about 18-fold higher than that of the compound before.
Compound `CN(C(=O)c1cc(C(F)(F)F)cc(C(F)(F)F)c1)[C@@H](/C=C/C(=O)NC1CCCCCC1)Cc1ccc(Cl)cc1` [N-[(E)-(R)-1-(4-Chloro-benzyl)-3-cycloheptylcarbamoyl-allyl]-N-methyl-3,5-bis-trifluoromethyl-benzamide] gave an IC50 of 12 nM.
The compound `CN(C(=O)c1cc(C(F)(F)F)cc(C(F)(F)F)c1)[C@@H](/C=C/C(=O)NC1(C(N)=O)CCCCC1)Cc1ccc(Cl)cc1` [N-[(E)-(R)-3-(1-Carbamoyl-cyclohexylcarbamoyl)-1-(4-chloro-benzyl)-allyl]-N-methyl-3,5-bis-trifluoromethyl-benzamide] gave an IC50 of 1 nM.
`CN(C(=O)c1cc(C(F)(F)F)cc(C(F)(F)F)c1)[C@@H](/C=C/C(=O)N[C@@H]1CCCCNC1=O)Cc1ccc(Cl)c(Cl)c1` [N-[(R,R)-(E)-(3,4-dichlorobenzyl)-3-(2-oxoazepan-3-yl)carbamoyl]allyl-N-methyl-3,5-bis(trifluoromethyl)benzamide] yielded an IC50 of 4.8 nM.
